Source: patent US5811444A, “Compositions for reducing abnormal stimulation of endothelin receptors and novel compounds” (Roussel Uclaf, priority 1994, dated 1998)

Experiments:
B receptor of endothelin = biological target: T1, B receptor of endothelin (Rattus norvegicus, UniProt P21451); experiment: Study of the activity on the B receptor of endothelin (displacement of 125I Endothelin, rat posterior cortex plus cerebellum membranes); assay type: binding; conditions: 25 °C, 60 minutes, pH 7.4, read-out: B receptor of endothelin IC/50
T1 construct: A membrane preparation is produced from the posterior cortex plus cerebellum of a rat; from tissue; host or cells: rat posterior cortex plus cerebellum, membranes
T1 sequence (P21451 27-442): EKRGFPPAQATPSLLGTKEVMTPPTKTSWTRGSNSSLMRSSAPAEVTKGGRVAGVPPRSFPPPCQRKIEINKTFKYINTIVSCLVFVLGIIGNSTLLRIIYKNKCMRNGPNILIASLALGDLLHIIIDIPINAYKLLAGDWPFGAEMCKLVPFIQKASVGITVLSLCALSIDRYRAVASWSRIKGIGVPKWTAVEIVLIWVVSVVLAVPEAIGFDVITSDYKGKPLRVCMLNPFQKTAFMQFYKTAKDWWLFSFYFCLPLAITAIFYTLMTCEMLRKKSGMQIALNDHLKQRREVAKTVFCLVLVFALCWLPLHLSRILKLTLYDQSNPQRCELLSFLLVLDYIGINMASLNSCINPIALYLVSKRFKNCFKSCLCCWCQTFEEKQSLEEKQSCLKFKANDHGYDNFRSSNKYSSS
Procedure: STUDY OF THE ACTIVITY ON THE B RECEPTOR OF ENDOTHELIN
A membrane preparation is produced from the posterior cortex plus cerebellum of a rat. The tissue is ground up in a POLYTRON in a 50 mM Tris buffer pH=7.4.
After 30 minutes at 25° C. (W.B.) the homogenate is centrifuged at 30000 g for 15 minutes (2 centrifugations with intermediate take-up in the Tris buffer pH. 7.4).
(§1) The pellets are resuspended in an incubation buffer (25 mM Tris, 5 microg/ml pepstatin A, 3 microg/ml aprotinin, 0.1 mM PMSF, 3 mM EDTA, 1 mM EGTA pH 7.4).
(§2) 2 ml aliquots are distributed into hemolysis tubes and ^125 I Endothelin (approximately 50000 dpm/tube) and the product to be studied are added. (The product is first tested at 3×10^-5 M three times). When the tested product displaces more than 50% of the radioactivity specifically bound to the receptor, it is tested again according to a range of 7 concentrations so as to determine the concentration which inhibits the radioactivity specifically bound to the receptor by 50%. In this way the 50% inhibitory concentration is determined.
(§3) The non-specific bond is determined by the addition of 10^-6 M endothelin (three times). After incubation at 25° C. for 60 minutes, putting back in the water bath at 0° C., for 5 minutes, filtering under reduced pressure, rinsing with Tris buffer 7.4, the radioactivity is counted in the presence of scintillating Triton. […]

A receptor of endothelin = biological target: T2, A receptor of endothelin (Rattus norvegicus, UniProt P26684); experiment: Study of the activity on the A receptor of endothelin (displacement of 125I Endothelin, rat heart ventricle membranes); assay type: binding; conditions: rat heart (ventricles) membranes, 25 °C, 60 minutes, pH 7.4, read-out: A receptor of endothelin IC/50
T2 construct: A membrane preparation is produced from the heart (ventricles) of a rat; from tissue; host or cells: rat heart ventricles, membranes
T2 sequence (P26684 21-426): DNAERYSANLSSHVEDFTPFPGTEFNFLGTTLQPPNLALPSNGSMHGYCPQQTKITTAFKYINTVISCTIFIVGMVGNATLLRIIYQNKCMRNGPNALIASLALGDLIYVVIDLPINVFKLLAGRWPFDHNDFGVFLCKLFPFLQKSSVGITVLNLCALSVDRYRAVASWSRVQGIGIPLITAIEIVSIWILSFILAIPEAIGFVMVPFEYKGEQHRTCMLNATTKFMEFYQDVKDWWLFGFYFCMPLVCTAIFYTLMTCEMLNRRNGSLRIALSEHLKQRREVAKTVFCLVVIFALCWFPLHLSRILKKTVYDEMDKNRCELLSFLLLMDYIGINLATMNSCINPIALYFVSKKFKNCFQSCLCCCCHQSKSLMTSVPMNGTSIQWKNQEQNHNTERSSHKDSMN
Procedure: STUDY OF THE ACTIVITY ON THE A RECEPTOR OF ENDOTHELIN
A membrane preparation is produced from the heart (ventricles) of a rat. The tissue is ground up in a POLYTRON in a 50 mM Tris buffer pH=7.4.
After 30 minutes at 25° C. (W.B.) the homogenate is centrifuged at 30000 g for 15 minutes (2 centrifugations with intermediate take up in the Tris buffer pH. 7.4).
as §1, §2, §3

IC50 (B receptor of endothelin) [nM]	IC50 (A receptor of endothelin) [nM]	Compound
350	110	COc1ccc(Sc2nc(C)n(Cc3cc4c(cc3Cl)OCO4)c2C(=O)O)cc1 [Example 21, 1-((6-chloro-1,3-benzodioxol-5-yl)methyl)-4-((4-methoxyphenyl)thio)-2-methyl-1H-imidazole-5-carboxylic acid]
250	91	CCCCc1nc(S(=O)(=O)c2ccc(OC)cc2)c(C(=O)O)n1Cc1cc2c(cc1Cl)OCO2 [Example 10, 2-butyl-1-((6-chloro-1,3-benzodioxol-5-yl)methyl)-4-((4-methoxyphenyl)sulphonyl)-1H-imidazole-5-carboxylic acid]
